In patent US20220387469A1, “METHOD OF UTILIZING ULTRAFINE BUBBLES” (Shiseido Company, Ltd., priority 2019, published 2022):

Assay: Permeation of adenosine into stratum corneum of forearm skin (tape peel, LC-MS quantification)
Assay type: in vivo, human
Details: forearm of a test subject, Formulation 1 that contains ultrafine bubbles (aerosol spray, actuator D391, nitrogen 0.9 MPa) applied first, then Formulation 2 (0.2% adenosine) applied for 10 minutes, 1 cm by 1 cm stratum corneum
Description: In order to provide Formulation 1 that contains ultrafine bubbles onto the skin, the aerosol container 10 was filled with Formulation 1, and the interior pressure was set to 0.9 MPa with nitrogen gas. The actuator “D391” having a flow rate adjusting mechanism produced by K. K. Mitani Valves was applied as the spray actuator 11.
That is, a liquid which was sprayed from the aerosol container 10 and Formulation 1 as an undiluted liquid were applied to two different locations on a forearm of a test subject. Thereafter, Formulation 2 that contains adenosine was applied onto each of the two locations for 10 minutes. Next, 1 cm by 1 cm squares of stratum corneum were peeled from the locations onto which the formulations were applied, stratum corneum components were extracted, and the amounts of adenosine were quantitatively analyzed by the LC-MS method (Liquid Chromatography Mass Spectrometry method).

Nc1ncnc2c1ncn2[C@@H]1O[C@H](CO)[C@@H](O)[C@H]1O [adenosine]
amount of adenosine within the stratum corneum, relative to the case that Formulation 1 that did not contain ultrafine bubbles was applied: 1.6 times
